Values belong to the compound of their own block, whether it stands above or below them.
System: 633275-114-R-J1-PDC complex spheroids, viability
Experiment: Anticancer human tumor 633275-114-R-J1-PDC patient-derived endometrial adenocarcinoma cell line growth inhibition [GQUAD]
Details: for IC50: curve of first compound; for viability, T/C: stronger effect = lower value
Excerpt: DNA G-quadruplex Stabilizer Agents in Combinations in Complex Spheroids
A high-throughput screen of multi-cell type tumor spheroids was designed to identify active combinations of DNA G-quadruplex stabilizer agents and targeted small molecules. Complex spheroids include a stromal component modeled by human endothelial cells (HUVEC) and fibroblasts modeled by human mesenchymal stem cells (MSCs). The concentration ranges selected for each drug and investigational agent were based upon clinically achievable concentrations if the clinical Cmax of the agent was known.
Compounds. The drugs and investigational agents: pidnarulex (CX-5461; NSC782164), APTO-253 (NSC789042), BRACO-19 (NSC847499), peposertib (NSC802822), ceralasertib (NSC780249), elimusertib (NSC800525), camonsertib (NSC841442), AZD-1390 (NSC803789), olaparib (NSC753686), talazoparib (NSC767125), ART-558 (NSC835418), sotorasib (NSC818433), MRTX-1133 (NSC836407), SN-38 (NSC673596), topotecan (NSC609699), etoposide (NSC141540), doxorubicin (NSC123127), gemcitabine (NSC613327), 5-fluorouracil (NSC19893), paclitaxel (NSC125973), vemurafenib (NSC761431), panobinostat (NSC761190), R-306465 (JNJ-16241199; NSC773264), adavosertib (NSC754352), TP-3654 (NSC805149), carboplatin (NSC241240), KSQ-4279 (NSC840948), and staurosporine (NSC755774) were obtained from the National Cancer Institute (NCI) Developmental Therapeutics Program Chemical Repository (34). The FDA-approved anticancer drug set is available from the NCI Developmental Therapeutics Program. […] The stock solutions were prepared in dimethyl sulfoxide (DMSO, Sigma-Aldrich, St. Louis, MO, cat. D2650) at 800-fold the tested concentration and stored at -70 degrees C prior to their use. All drugs and investigational agents were tested over a range starting from a high concentration at or near the clinical Cmax and decreasing in half-log increments. If the clinical Cmax for an agent had not been determined, the highest concentration tested was 10 microM.
2.3 Cell Culture. All cells were maintained in an incubator at 37 degrees C and 5% CO2 with 95% humidity. The PDC lines were cultured according to standard operating procedures established by the NCI PDMR. All PDCs were thawed and cultured in Matrigel-coated flasks prepared with a working solution of 1X Ham's F-12 nutrient mix, without supplementation (Invitrogen, cat. 11765054), 100 U/mL penicillin-streptomycin (Invitrogen, cat. 15140122), and 2.5% Matrigel (Corning Inc., cat. 354248) for the first three passages. The 857933-349-R-J2-PDC line was cultured in 6C/Colon 1B media, which includes advanced DMEM/F-12 (Thermo Fisher Scientific, cat. 12634028), 10 mM HEPES (Thermo Fisher Scientific, cat. 15630080), 1X GlutaMAX supplement (Thermo Fisher Scientific, cat. 35050061), 0.1 mg/mL primocin (InvivoGen, cat. ant-pm-2), 10% defined fetal bovine serum, heat inactivated (HyClone Laboratories Inc., cat. SH30070.03HI), 50% L-WRN conditioned media (ATCC, cat. CRL-3276), 1.25 mM N-Acetyl-L-cysteine (Sigma-Aldrich, cat. A9165), 10 mM nicotinamide (Sigma-Aldrich, cat. N0636), 1X B-27 supplement (Thermo Fisher Scientific, cat. 17504044), 1X N-2 supplement (Thermo Fisher Scientific, cat. 17502048), 10 microM Y-27632 dihydrochloride (Tocris Bioscience, cat. 1254), and 50 ng/mL human EGF recombinant protein (Thermo Fisher Scientific, cat. PHG0311). The 485176-168-R4-J1-PDC line was cultured in Panc media, which includes all 6C/Colon 1B media components plus 100 ng/mL human FGF-10 (Thermo Fisher Scientific, cat. 100-26), 500 nM SB-431542 (Selleckchem, cat. S1067), and gastrin (Tocris, cat. 3006).
[…]

[1] = second compound 0.0316 µM, first compound 0.0316 µM
[2] = second compound 0.0316 µM, first compound 0.316 µM
[3] = second compound 0.1 µM, first compound 0.0316 µM
[4] = second compound 0.1 µM, first compound 0.316 µM
[5] = second compound 0.316 µM, first compound 0.0316 µM
[6] = second compound 0.316 µM, first compound 0.316 µM
[7] = second compound 1 µM, first compound 0.0316 µM
[8] = second compound 1 µM, first compound 0.316 µM
[9] = second compound 3.16 µM, first compound 0.0316 µM
[10] = second compound 3.16 µM, first compound 0.316 µM
[11] = second compound 10 µM, first compound 0.0316 µM
[12] = second compound 10 µM, first compound 0.316 µM
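Note: spheroids exposed to the agents for seven days.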
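Throughout, for viability, T/C: percent of DMSO vehicle control viability which is 100%.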

IC50 (second compound 0.0316 µM): 5.34 µM
IC50 (second compound 0.1 µM): 3.83 µM
IC50 (second compound 0.316 µM): 1.46 µM
IC50 (second compound 1 µM): < 0.0316 µM
IC50 (second compound 3.16 µM): < 0.0316 µM
IC50 (second compound 10 µM): < 0.0316 µM
SMILES: CCCS(=O)(=O)Nc1ccc(F)c(C(=O)c2c[nH]c3ncc(-c4ccc(Cl)cc4)cc23)c1F + Cc1cnc(CNC(=O)c2c(=O)c3ccc(N4CCCN(C)CC4)nc3n3c2sc2ccccc23)cn1
viability, T/C [1]: 68.7%
viability, T/C (second compound 0.0316 µM, first compound 0.1 µM): 67.6%
viability, T/C [2]: 72.9%
viability, T/C (second compound 0.0316 µM, first compound 1 µM): 77%
viability, T/C (second compound 0.0316 µM, first compound 3.16 µM): 69.4%
viability, T/C (second compound 0.0316 µM, first compound 10 µM): 26.3%
viability, T/C [3]: 55.9%
viability, T/C (second compound 0.1 µM, first compound 0.1 µM): 53.1%
viability, T/C [4]: 56.1%
viability, T/C (second compound 0.1 µM, first compound 1 µM): 58.1%
viability, T/C (second compound 0.1 µM, first compound 3.16 µM): 56.4%
viability, T/C (second compound 0.1 µM, first compound 10 µM): 20.7%
viability, T/C [5]: 49%
viability, T/C (second compound 0.316 µM, first compound 0.1 µM): 53.3%
viability, T/C [6]: 50.8%
viability, T/C (second compound 0.316 µM, first compound 1 µM): 54%
viability, T/C (second compound 0.316 µM, first compound 3.16 µM): 46.8%
viability, T/C (second compound 0.316 µM, first compound 10 µM): 19.3%
viability, T/C [7]: 40.7%
viability, T/C (second compound 1 µM, first compound 0.1 µM): 43.6%
viability, T/C [8]: 47.7%
viability, T/C (second compound 1 µM, first compound 1 µM): 47.3%
viability, T/C (second compound 1 µM, first compound 3.16 µM): 43.3%
viability, T/C (second compound 1 µM, first compound 10 µM): 13.6%
viability, T/C [9]: 37.2%
viability, T/C (second compound 3.16 µM, first compound 0.1 µM): 37.1%
viability, T/C [10]: 36.7%
viability, T/C (second compound 3.16 µM, first compound 1 µM): 40.3%
viability, T/C (second compound 3.16 µM, first compound 3.16 µM): 40.6%
viability, T/C (second compound 3.16 µM, first compound 10 µM): 7.26%
viability, T/C [11]: 30.6%
viability, T/C (second compound 10 µM, first compound 0.1 µM): 33.1%
viability, T/C [12]: 34%
viability, T/C (second compound 10 µM, first compound 1 µM): 35.9%
viability, T/C (second compound 10 µM, first compound 3.16 µM): 27.8%
viability, T/C (second compound 10 µM, first compound 10 µM): 0.18%

IC50 (second compound 0.0316 µM): 0.013 µM
IC50 (second compound 0.1 µM): 0.00349 µM
IC50 (second compound 0.316 µM): < 0.000999 µM
IC50 (second compound 1 µM): < 0.000999 µM
IC50 (second compound 3.16 µM): < 0.000999 µM
IC50 (second compound 10 µM): < 0.000999 µM
SMILES: Cc1[nH]c2ccccc2c1CCNCc1ccc(/C=C/C(=O)NO)cc1 + Cc1cnc(CNC(=O)c2c(=O)c3ccc(N4CCCN(C)CC4)nc3n3c2sc2ccccc23)cn1
viability, T/C (second compound 0.0316 µM, first compound 0.000999 µM): 65.8%
viability, T/C (second compound 0.0316 µM, first compound 0.00316 µM): 59.5%
viability, T/C (second compound 0.0316 µM, first compound 0.00999 µM): 52.6%
viability, T/C [1]: 41.3%
viability, T/C (second compound 0.0316 µM, first compound 0.0999 µM): 32%
viability, T/C [2]: 16.2%
viability, T/C (second compound 0.1 µM, first compound 0.000999 µM): 56.1%
viability, T/C (second compound 0.1 µM, first compound 0.00316 µM): 48%
viability, T/C (second compound 0.1 µM, first compound 0.00999 µM): 45.2%
viability, T/C [3]: 38%
viability, T/C (second compound 0.1 µM, first compound 0.0999 µM): 25.4%
viability, T/C [4]: 15.1%
viability, T/C (second compound 0.316 µM, first compound 0.000999 µM): 50.4%
viability, T/C (second compound 0.316 µM, first compound 0.00316 µM): 40.7%
viability, T/C (second compound 0.316 µM, first compound 0.00999 µM): 37.5%
viability, T/C [5]: 30.9%
viability, T/C (second compound 0.316 µM, first compound 0.0999 µM): 21.7%
viability, T/C [6]: 9.86%
viability, T/C (second compound 1 µM, first compound 0.000999 µM): 44.3%
viability, T/C (second compound 1 µM, first compound 0.00316 µM): 38.2%
viability, T/C (second compound 1 µM, first compound 0.00999 µM): 34.8%
viability, T/C [7]: 33.1%
viability, T/C (second compound 1 µM, first compound 0.0999 µM): 21.4%
viability, T/C [8]: 8.16%
viability, T/C (second compound 3.16 µM, first compound 0.000999 µM): 38.3%
viability, T/C (second compound 3.16 µM, first compound 0.00316 µM): 32.1%
viability, T/C (second compound 3.16 µM, first compound 0.00999 µM): 31.9%
viability, T/C [9]: 27.7%
viability, T/C (second compound 3.16 µM, first compound 0.0999 µM): 16.6%
viability, T/C [10]: 0.13%
viability, T/C (second compound 10 µM, first compound 0.000999 µM): 27.3%
viability, T/C (second compound 10 µM, first compound 0.00316 µM): 31.2%
viability, T/C (second compound 10 µM, first compound 0.00999 µM): 27.7%
viability, T/C [11]: 24.8%
viability, T/C (second compound 10 µM, first compound 0.0999 µM): 16.5%
viability, T/C [12]: 0.21%
